Publication PMC3914206

Target: T1, panel of 442 kinases (Homo sapiens, UniProt Q06418)
T1 construct: purchased KINOMEscan
T1 sequence (Q06418 41-890): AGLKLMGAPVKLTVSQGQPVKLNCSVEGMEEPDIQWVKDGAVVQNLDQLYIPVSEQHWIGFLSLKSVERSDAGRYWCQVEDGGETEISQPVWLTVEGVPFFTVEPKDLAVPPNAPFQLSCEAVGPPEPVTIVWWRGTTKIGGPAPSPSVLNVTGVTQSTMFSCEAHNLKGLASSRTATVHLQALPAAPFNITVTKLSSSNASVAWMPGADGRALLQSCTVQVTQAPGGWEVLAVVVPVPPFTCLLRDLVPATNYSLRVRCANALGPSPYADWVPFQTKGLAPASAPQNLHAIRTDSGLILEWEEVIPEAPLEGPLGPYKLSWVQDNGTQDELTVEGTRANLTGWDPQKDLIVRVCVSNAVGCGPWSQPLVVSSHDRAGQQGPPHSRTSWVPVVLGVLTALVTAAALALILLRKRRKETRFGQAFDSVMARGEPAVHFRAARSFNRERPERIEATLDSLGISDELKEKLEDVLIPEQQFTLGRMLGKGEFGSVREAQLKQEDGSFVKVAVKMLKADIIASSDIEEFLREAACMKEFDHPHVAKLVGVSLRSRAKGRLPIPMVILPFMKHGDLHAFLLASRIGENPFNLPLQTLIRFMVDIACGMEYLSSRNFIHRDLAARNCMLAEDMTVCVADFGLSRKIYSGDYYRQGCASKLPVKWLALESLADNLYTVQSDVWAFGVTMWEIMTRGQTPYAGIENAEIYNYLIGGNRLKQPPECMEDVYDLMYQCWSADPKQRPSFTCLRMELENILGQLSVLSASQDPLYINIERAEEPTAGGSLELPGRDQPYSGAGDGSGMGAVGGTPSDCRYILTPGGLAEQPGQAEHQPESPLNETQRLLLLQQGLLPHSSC
Assay type: binding
Details: kinase TYRO3; compound concentration 10 µM
From the text: We assessed the selectivity of members of this scaffold using the KINOMEscan methodology across a near comprehensive panel of 442 kinases [[18,27]].

Row | SMILES | % Ctrl, TYRO3
1 | COc1cc(C(=O)N2CCC(N3CCN(C)CC3)CC2)ccc1Nc1ncc2c(n1)N(C)c1ccccc1C(=O)N2C [15 (LRRK2-IN-1)] | 100 % Ctrl
2 | COc1cc(C(=O)N2CCC(N3CCN(C)CC3)CC2)ccc1Nc1ncc2c(n1)N1CCc3cccc(c31)C(=O)N2C [Compound 24] | 100 % Ctrl
3 | COc1cc(C(=O)N2CCC(N3CCN(C)CC3)CC2)ccc1Nc1ncc2c(n1)N(C1CCCC1)c1ccccc1C(=O)N2C [Compound 25, 11-cyclopentyl-2-((2-methoxy-4-(4-(4-methylpiperazin-1-yl)piperidine-1-carbonyl)phenyl)amino)-5-methyl-5H-benzo[e]pyrimido[5,4-b][1,4]diazepin-6(11H)-one] | 100 % Ctrl
4 | CCOc1cc(C(=O)N2CCC(N3CCN(C)CC3)CC2)ccc1Nc1ncc2c(n1)N(C1CCCC1)c1ccccc1C(=O)N2C [Compound 26] | 100 % Ctrl
